Source: patent US20220370440A1 (Lead Discovery Center GmbH, priority 2018, published 2022)

Tests used:
[1] = molecular target: T1, HER2 INS YVMA (Homo sapiens, UniProt P04626, INS775YVMA); assay: Lance Kinase Activity Assay, HER2 INS YVMA (Her2 Exon 20 INSYVMA Lance); format: biochemical; settings: biochemical Lance assay
T1 construct: purchased DPF
In short: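 Kinase phosphorylates a ULight-labelled peptide substrate; Eu anti-phospho antibody gives TR-FRET (ex 340 nm, em 665/615 nm). Compounds in 1:3 serial dilution over 8 steps, reaction started with ATP, 1 h at room temperature, stopped with EDTA-containing detection mix for 1 h. IC50 from sigmoidal dose-response curves.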

[2] = molecular target: Her2 Exon 20 INSYVMA Ba/F3 (Homo sapiens, UniProt P04626, DUP772-775, cells depend on it); assay: Her2 Exon 20 INSYVMA Ba/F3 CellTiter-Glo; format: cell-based; settings: CellTiter-Glo, 72 h, read-out: Her2 Exon 20 INSYVMA Ba/F3 CTG IC50
In short: (§1)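 Seed Ba/F3 cells; 24 h, 37 °C/5% CO2. Add cpds in DMSO, multiple concs; 72 h. CellTiter-Glo, 10 min RT, luminescence. IC50 by curve fit. Z′ ≥0.5 from DMSO vs 10 μM staurosporine.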

[3] = molecular target: EGFR Exon 20 INSNPH Ba/F3 (Homo sapiens, UniProt P00533, DUP771-773, cells depend on it); assay: EGFR Exon 20 INSNPH Ba/F3 CellTiter-Glo; format: cell-based; settings: CellTiter-Glo, 72 h, read-out: EGFR Exon 20 INSNPH Ba/F3 CTG IC50
In short: as §1

[4] = molecular target: EGFR T790ML858R (Homo sapiens, UniProt P00533, L858R/T790M); assay: EGFR T790ML858R Lance assay; format: biochemical
Description: (§2) Inhibition is indicated as […] [nM] (“−”=not measured). Compounds having an activity designated as “A” provided an IC50≤100 nM; compounds having an activity designated as “B” provided an 100 nM<IC50≤500 nM; compounds having an activity designated as “C” provided an 500 nM<IC50≤1000 nM; compounds having an activity designated as “D” provided an 1000 nM<IC50≤100000 nM; and compounds having an activity designated as “E” provided an IC50>10000 nM.

[5] = molecular target: EGFR wt (Homo sapiens, UniProt P00533); assay: EGFR wt Lance assay; format: biochemical
Description: as §2

[6] = test system: H1975; assay: H1975 CellTiter-Glo; format: cell-based; settings: Homo sapiens, NCI-H1975; 72 h compound incubation; read-out: H1975 CTG IC50
In short: (§3)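 Antiproliferative IC50 values come from a 72 h treatment of cultured cells, measured by CellTiter-Glo ATP luminescence. Only runs with a Z′-factor of at least 0.5, calculated from 16 vehicle and 16 Staurosporine (10 μM) control wells, are reported.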

[7] = test system: A431; assay: A431 CellTiter-Glo; format: cell-based; settings: Homo sapiens, A-431; 72 h compound incubation; read-out: A431 CTG IC50
In short: as §3

[8] = Metabolic stability in mouse liver microsomes without cofactor NADPH; format: in vitro ADME; settings: 3 μM test compound, mouse liver microsomes, without NADPH, 50 min, 37° C., LC-MS/MS
Excerpt: There are two major groups of enzyme reactions catalyzed by drug metabolizing enzymes, the so called Phase I and Phase II reactions. The basic processes in phase I reactions are oxidation, reduction and/or hydrolysis mostly catalyzed by the cytochrome P450 (CYP) family of enzymes.
The following procedures describe the determination of the in vitro Phase I metabolic stability of test compounds using liver microsomes by measuring compound depletion over time. Test compound at the concentration of 3 μM was incubated with the liver microsomes from the mouse species and the experiment was performed without NADPH. The depletion of the test compounds was measured over time up to 50 minutes at 37° C. by LC-MS/MS. Different compounds were tested under these conditions for microsomal stability (see Table 5).

Sequence of EGFR T790ML858R (P00533 25-1210 T790M/L858R): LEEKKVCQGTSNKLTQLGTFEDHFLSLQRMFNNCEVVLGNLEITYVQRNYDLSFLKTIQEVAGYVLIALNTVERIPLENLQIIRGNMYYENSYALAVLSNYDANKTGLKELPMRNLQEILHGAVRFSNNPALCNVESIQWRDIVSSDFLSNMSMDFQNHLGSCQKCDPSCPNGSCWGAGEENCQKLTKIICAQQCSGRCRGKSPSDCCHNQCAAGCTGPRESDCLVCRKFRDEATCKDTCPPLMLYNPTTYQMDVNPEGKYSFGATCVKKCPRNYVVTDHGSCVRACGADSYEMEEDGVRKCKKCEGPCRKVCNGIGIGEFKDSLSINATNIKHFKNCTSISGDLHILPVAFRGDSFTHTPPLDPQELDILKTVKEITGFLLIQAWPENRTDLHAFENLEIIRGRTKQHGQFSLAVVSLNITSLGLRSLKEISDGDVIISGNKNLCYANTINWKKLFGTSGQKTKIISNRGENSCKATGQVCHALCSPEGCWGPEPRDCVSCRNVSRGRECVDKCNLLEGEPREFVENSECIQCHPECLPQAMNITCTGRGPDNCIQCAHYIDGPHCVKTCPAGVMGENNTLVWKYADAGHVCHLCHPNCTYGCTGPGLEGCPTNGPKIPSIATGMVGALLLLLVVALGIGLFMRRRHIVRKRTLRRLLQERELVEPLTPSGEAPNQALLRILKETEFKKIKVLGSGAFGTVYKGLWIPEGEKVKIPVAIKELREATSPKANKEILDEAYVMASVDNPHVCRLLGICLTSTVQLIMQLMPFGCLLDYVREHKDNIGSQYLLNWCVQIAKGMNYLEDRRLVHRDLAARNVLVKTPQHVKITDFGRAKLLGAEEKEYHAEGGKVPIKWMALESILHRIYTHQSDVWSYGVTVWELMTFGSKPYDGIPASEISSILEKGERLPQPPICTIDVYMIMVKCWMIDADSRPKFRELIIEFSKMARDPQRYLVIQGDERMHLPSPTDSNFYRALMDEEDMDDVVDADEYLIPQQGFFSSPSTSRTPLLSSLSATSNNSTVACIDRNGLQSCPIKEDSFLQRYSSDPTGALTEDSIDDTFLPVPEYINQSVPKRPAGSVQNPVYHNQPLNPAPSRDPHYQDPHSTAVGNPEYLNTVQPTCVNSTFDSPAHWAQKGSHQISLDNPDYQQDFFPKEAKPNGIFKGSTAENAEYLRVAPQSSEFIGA
Sequence of EGFR wt (P00533 25-1210): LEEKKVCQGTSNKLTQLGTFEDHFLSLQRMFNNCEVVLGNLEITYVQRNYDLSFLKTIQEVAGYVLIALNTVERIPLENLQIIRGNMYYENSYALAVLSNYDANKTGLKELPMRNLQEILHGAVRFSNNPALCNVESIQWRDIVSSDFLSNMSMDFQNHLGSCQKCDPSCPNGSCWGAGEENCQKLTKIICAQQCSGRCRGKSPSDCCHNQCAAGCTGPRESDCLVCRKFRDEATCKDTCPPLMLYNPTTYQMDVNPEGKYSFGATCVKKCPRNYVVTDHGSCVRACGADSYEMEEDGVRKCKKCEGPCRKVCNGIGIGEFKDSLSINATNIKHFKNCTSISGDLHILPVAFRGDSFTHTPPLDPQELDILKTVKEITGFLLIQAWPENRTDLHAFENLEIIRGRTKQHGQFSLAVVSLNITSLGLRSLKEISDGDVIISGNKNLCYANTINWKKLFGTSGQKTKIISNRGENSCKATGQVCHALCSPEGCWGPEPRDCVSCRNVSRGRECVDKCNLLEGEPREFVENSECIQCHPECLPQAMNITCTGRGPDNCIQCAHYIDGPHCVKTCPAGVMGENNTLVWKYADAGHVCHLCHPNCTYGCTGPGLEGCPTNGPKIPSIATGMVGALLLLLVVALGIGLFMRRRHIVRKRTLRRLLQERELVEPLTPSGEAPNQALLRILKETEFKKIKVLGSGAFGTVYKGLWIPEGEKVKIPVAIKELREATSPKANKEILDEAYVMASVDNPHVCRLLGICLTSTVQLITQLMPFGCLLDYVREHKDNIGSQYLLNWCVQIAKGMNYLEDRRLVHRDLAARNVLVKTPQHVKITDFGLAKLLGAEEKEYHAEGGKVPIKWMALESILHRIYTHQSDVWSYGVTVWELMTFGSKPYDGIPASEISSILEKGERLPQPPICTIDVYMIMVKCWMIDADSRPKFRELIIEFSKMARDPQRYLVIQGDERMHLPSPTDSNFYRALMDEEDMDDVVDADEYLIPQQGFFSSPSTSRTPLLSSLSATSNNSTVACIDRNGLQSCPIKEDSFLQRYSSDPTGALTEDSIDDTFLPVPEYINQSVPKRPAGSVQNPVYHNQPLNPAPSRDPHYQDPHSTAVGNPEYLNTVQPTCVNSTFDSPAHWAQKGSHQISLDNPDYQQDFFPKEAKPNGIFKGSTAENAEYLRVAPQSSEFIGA
Sequence of EGFR Exon 20 INSNPH Ba/F3 (P00533 with tags, fused parts or gaps DUP771-773): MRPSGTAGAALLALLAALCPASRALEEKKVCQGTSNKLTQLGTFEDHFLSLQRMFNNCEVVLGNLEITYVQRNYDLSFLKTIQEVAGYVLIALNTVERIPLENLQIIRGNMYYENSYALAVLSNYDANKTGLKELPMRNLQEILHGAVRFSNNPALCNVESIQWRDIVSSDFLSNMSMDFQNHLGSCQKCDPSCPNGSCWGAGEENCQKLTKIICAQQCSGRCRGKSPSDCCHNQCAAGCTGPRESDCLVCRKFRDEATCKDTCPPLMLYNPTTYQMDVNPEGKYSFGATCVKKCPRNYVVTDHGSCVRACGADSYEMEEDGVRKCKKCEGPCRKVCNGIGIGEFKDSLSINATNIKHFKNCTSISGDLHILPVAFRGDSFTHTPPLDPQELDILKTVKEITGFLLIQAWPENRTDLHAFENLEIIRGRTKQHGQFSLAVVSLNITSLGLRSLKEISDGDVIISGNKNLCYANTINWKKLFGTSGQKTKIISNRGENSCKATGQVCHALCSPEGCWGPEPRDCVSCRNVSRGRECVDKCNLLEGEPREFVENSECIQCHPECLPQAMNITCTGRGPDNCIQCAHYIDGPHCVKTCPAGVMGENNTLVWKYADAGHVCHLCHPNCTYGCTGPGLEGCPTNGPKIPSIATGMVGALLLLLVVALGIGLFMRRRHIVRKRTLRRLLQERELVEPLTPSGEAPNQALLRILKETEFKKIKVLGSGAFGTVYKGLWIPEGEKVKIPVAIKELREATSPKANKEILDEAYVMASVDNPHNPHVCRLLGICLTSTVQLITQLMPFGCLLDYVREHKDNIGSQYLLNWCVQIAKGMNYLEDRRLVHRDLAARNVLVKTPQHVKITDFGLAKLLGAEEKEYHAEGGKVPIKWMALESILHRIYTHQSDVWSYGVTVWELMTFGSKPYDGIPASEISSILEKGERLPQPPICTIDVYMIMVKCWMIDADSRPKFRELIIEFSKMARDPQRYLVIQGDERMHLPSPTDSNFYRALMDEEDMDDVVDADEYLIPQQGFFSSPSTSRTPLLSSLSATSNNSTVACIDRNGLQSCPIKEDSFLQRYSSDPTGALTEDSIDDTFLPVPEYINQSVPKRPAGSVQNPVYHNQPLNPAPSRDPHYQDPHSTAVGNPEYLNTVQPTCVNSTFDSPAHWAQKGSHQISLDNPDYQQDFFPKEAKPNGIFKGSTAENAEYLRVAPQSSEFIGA
T1 sequence (P04626 with tags, fused parts or gaps INS775YVMA): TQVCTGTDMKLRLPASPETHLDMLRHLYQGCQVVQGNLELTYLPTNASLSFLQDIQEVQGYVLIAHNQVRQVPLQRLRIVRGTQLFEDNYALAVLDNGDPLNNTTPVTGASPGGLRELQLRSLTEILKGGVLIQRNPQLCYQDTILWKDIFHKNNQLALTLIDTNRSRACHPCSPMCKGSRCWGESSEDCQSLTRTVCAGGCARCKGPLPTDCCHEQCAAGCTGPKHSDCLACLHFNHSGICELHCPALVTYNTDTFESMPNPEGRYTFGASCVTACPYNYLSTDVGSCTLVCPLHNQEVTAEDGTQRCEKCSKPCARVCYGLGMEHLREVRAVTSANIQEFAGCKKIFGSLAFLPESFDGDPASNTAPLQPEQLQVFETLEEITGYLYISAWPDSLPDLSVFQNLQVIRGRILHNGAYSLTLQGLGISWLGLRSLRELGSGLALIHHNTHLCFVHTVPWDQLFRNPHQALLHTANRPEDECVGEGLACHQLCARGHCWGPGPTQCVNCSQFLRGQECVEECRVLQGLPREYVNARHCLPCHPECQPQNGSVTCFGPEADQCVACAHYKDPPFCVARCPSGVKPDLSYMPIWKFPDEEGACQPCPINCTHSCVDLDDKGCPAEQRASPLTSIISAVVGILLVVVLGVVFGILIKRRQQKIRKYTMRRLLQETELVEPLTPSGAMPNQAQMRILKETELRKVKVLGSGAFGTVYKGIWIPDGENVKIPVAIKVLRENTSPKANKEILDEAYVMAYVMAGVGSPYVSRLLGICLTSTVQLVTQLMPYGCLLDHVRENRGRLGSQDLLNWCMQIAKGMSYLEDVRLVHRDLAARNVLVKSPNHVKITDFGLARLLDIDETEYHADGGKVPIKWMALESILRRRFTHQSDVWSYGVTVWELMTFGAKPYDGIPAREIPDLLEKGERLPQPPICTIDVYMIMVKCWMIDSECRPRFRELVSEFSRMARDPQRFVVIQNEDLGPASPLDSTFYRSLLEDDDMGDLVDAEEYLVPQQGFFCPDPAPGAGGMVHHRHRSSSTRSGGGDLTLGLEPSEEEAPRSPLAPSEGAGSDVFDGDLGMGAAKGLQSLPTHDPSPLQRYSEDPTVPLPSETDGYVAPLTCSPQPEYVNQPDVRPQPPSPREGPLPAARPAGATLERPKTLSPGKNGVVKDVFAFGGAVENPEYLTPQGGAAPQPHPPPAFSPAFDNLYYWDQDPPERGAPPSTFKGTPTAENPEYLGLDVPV

| SMILES | IC50 [1] | GI50 [2] | GI50 [3] | IC50 [4] | IC50 [5] | IC50 [6] | IC50 [7] | Stability in presence of mouse liver microsomes without cofactor NADPH [% remaining after 50 min] [8] |
| --- | --- | --- | --- | --- | --- | --- | --- | --- |
| C=CC(=O)Nc1cc(-c2c(-c3ccc(N4CCN(C)CC4)nc3)[nH]c3nccc(Cl)c23)ccc1C [Example 19, N-(5-(4-chloro-2-(6-(4-methylpiperazin-1-yl)pyridin-3-yl)-1H-pyrrolo[2,3-b]pyridin-3-yl)-2-methylphenyl)acrylamide] | 100 to 500 nM | 500 to 1000 nM | 500 to 1000 nM | ≤ 100 nM | ≤ 100 nM | 100 to 500 nM | 1000 to 100000 nM | >99 % remaining after 50 min |
| C=CC(=O)Nc1cc(-c2c(-c3ccc(N4CCOCC4)nc3)[nH]c3nccc(Cl)c23)ccc1C [Example 30, N-(5-(4-chloro-2-(6-morpholinopyridin-3-yl)-1H-pyrrolo[2,3-b]pyridin-3-yl)-2-methylphenyl)acrylamide] | 100 to 500 nM | 1000 to 10000 nM | 500 to 1000 nM | ≤ 100 nM | ≤ 100 nM | 100 to 500 nM | – | >99 % remaining after 50 min |
| C=CC(=O)Nc1cc(-c2c(-c3ccc(N4CCN(C(C)=O)CC4)nc3)[nH]c3nccc(Cl)c23)ccc1C [Example 31, N-(5-(2-(6-(4-acetylpiperazin-1-yl)pyridin-3-yl)-4-chloro-1H-pyrrolo[2,3-b]pyridin-3-yl)-2-methylphenyl)acrylamide] | 100 to 500 nM | 1000 to 10000 nM | 1000 to 10000 nM | ≤ 100 nM | 500 to 1000 nM | 100 to 500 nM | – | >99 % remaining after 50 min |
| C=CC(=O)Nc1cc(-c2c(-c3ccnc(N4CCOCC4)c3)[nH]c3nccc(Cl)c23)ccc1C [Example 32, N-(5-(4-chloro-2-(2-morpholinopyridin-4-yl)-1H-pyrrolo[2,3-b]pyridin-3-yl)-2-methylphenyl)acrylamide] | 100 to 500 nM | 500 to 1000 nM | 500 to 1000 nM | ≤ 100 nM | ≤ 100 nM | ≤ 100 nM | – | >99 % remaining after 50 min |
| C=CC(=O)Nc1cc(-c2c(-c3cnc(N4CCOCC4)nc3)[nH]c3nccc(Cl)c23)ccc1C [Example 36, N-(5-(4-chloro-2-(2-morpholinopyrimidin-5-yl)-1H-pyrrolo[2,3-b]pyridin-3-yl)-2-methylphenyl)acrylamide] | 500 to 1000 nM | 1000 to 10000 nM | 1000 to 10000 nM | ≤ 100 nM | ≤ 100 nM | 100 to 500 nM | 1000 to 100000 nM | >99 % remaining after 50 min |
| C=CC(=O)Nc1cc(-c2c(-c3cnc(N4CCN(C)CC4)nc3)[nH]c3nccc(Cl)c23)ccc1C [Example 39, N-(5-(4-chloro-2-(2-(4-methylpiperazin-1-yl)pyrimidin-5-yl)-1H-pyrrolo[2,3-b]pyridin-3-yl)-2-methylphenyl)acrylamide] | 100 to 500 nM | 500 to 1000 nM | 1000 to 10000 nM | ≤ 100 nM | ≤ 100 nM | 100 to 500 nM | 1000 to 100000 nM | >99 % remaining after 50 min |
| C=CC(=O)Nc1cc(-c2c(-c3ccc(C4CCN(C)CC4)cc3)[nH]c3nccc(OCC)c23)ccc1C [Example 147, 2,2,2-trifluoroacetate] | ≤ 100 nM | 500 to 1000 nM | 500 to 1000 nM | ≤ 100 nM | ≤ 100 nM | ≤ 100 nM | – | 94 % remaining after 50 min |

Second part, the compound after the results:

| IC50 [1] | GI50 [2] | GI50 [3] | IC50 [4] | IC50 [5] | IC50 [6] | IC50 [7] | Stability in presence of mouse liver microsomes without cofactor NADPH [% remaining after 50 min] [8] | SMILES |
| --- | --- | --- | --- | --- | --- | --- | --- | --- |
| ≤ 100 nM | 100 to 500 nM | 100 to 500 nM | ≤ 100 nM | ≤ 100 nM | ≤ 100 nM | 100 to 500 nM | >99 % remaining after 50 min | C=CC(=O)Nc1cc(-c2c(-c3cccc(OCCN4CCCC4)c3)[nH]c3nccc(Cl)c23)ccc1C [Example 37, N-(5-(4-chloro-2-(3-(2-(pyrrolidin-1-yl)ethoxy)phenyl)-1H-pyrrolo[2,3-b]pyridin-3-yl)-2-methylphenyl)acrylamide] |
| ≤ 100 nM | ≤ 100 nM | ≤ 100 nM | ≤ 100 nM | ≤ 100 nM | ≤ 100 nM | 100 to 500 nM | >99 % remaining after 50 min | C=CC(=O)Nc1cc(-c2c(-c3ccc(OCCN4CCCC4)cc3)[nH]c3nccc(Cl)c23)ccc1C [Example 38, N-(5-(4-chloro-2-(4-(2-(pyrrolidin-1-yl)ethoxy)phenyl)-1H-pyrrolo[2,3-b]pyridin-3-yl)-2-methylphenyl)acrylamide] |
| ≤ 100 nM | ≤ 100 nM | ≤ 100 nM | ≤ 100 nM | ≤ 100 nM | ≤ 100 nM | 100 to 500 nM | >99 % remaining after 50 min | C=CC(=O)Nc1cc(-c2c(-c3ccc(N4CCN(CC)CC4)cc3)[nH]c3nccc(Cl)c23)ccc1C [Example 40, N-(5-(4-chloro-2-(4-(4-ethylpiperazin-1-yl)phenyl)-1H-pyrrolo[2,3-b]pyridin-3-yl)-2-methylphenyl)acrylamide] |
| ≤ 100 nM | ≤ 100 nM | ≤ 100 nM | ≤ 100 nM | ≤ 100 nM | ≤ 100 nM | 100 to 500 nM | >99 % remaining after 50 min | C=CC(=O)Nc1cc(-c2c(-c3ccc(N4CCN(C(C)C)CC4)cc3)[nH]c3nccc(Cl)c23)ccc1C [Example 41, N-(5-(4-chloro-2-(4-(4-isopropylpiperazin-1-yl)phenyl)-1H-pyrrolo[2,3-b]pyridin-3-yl)-2-methylphenyl)acrylamide] |
| ≤ 100 nM | 100 to 500 nM | 100 to 500 nM | ≤ 100 nM | ≤ 100 nM | ≤ 100 nM | 100 to 500 nM | >99 % remaining after 50 min | C=CC(=O)Nc1cc(-c2c(-c3ccc(N4CCN(C)CC4)c(F)c3)[nH]c3nccc(Cl)c23)ccc1C [Example 42, N-(5-(4-chloro-2-(3-fluoro-4-(4-methylpiperazin-1-yl)phenyl)-1H-pyrrolo[2,3-b]pyridin-3-yl)-2-methylphenyl)acrylamide] |
| ≤ 100 nM | ≤ 100 nM | ≤ 100 nM | ≤ 100 nM | ≤ 100 nM | ≤ 100 nM | 100 to 500 nM | >99 % remaining after 50 min | C=CC(=O)Nc1cc(-c2c(-c3ccc(N(C)CCN(C)C)cc3)[nH]c3nccc(Cl)c23)ccc1C [Example 43, N-(5-(4-chloro-2-(4-((2-(dimethylamino)ethyl)(methyl)amino)phenyl)-1H-pyrrolo[2,3-b]pyridin-3-yl)-2-methylphenyl)acrylamide] |
| ≤ 100 nM | 100 to 500 nM | 100 to 500 nM | ≤ 100 nM | ≤ 100 nM | ≤ 100 nM | 500 to 1000 nM | >99 % remaining after 50 min | C=CC(=O)N1CCc2ccc(-c3c(-c4ccc(N5CCN(C(C)C)CC5)cc4)[nH]c4nccc(Cl)c34)cc21 [Example 62, 1-(6-(4-chloro-2-(4-(4-isopropylpiperazin-1-yl)phenyl)-1H-pyrrolo[2,3-b]pyridin-3-yl)indolin-1-yl)prop-2-en-1-one] |
